In general, pIC50 refers to −log10 of the IC50, conventionally taken in molar units.

Experimental findings from US8901118B2, “Compounds and methods for kinase modulation, and indications therefor” (Plexxikon Inc., priority 2010, dated 2014) are described below.

SMILES strings stand for the structures. pIC50: −log10 of the molar value. A value given as a limit tells only on which side of the number the result lay.

In this assay the test system is Osteoclast precursor cells. The experiment in a line: Osteoclast differentiation assay (acid phosphatase readout). It counts as cell-based. On the procedure: Further, an osteoclast differentiation assay is used to assess the efficacy of Fms inhibitors for treating bone disease such as osteoarthritis. On day 0, Osteoclast Medium BulletKit (Lonza catalog #PT-8001, containing Media, FBS, L-Glutamine, PenStrep, RANKL, and M-CSF) media is thawed and the FBS, L-glutamine and PenStrep from the kit is added to 100 mL of Osteoclast Precursor Basal medium to provide the Osteoclast Precursor Growth Medium (OPGM). This is warmed to 37° C. Osteoclast precursor cells (Lonza catalog #2T-110) frozen in cryovial are warmed to 37° C. and transferred to a 50 mL conical tube. The cryovial is rinsed with OPGM and added dropwise to the conical tube of cells with swirling, then the volume is adjusted to 20-30 mL with addition of OPGM. The cells are centrifuged at 200×g for 15 minutes at room temperature and all but approximately 3 mL of supernatant is removed to a new conical tube. The cells are suspended in the remaining supernatant and the volume is adjusted to 10-15 mL with OPGM added dropwise with swirling. The cells are centrifuged at 200×g for 15 minutes at room temperature and all but approximately 1 mL of supernatant is removed. The cells are resuspended in the remaining supernatant, counted, and the volume adjusted with an appropriate amount of OPGM to provide approximately 1×10^5 cells/mL. A 0.1 mL aliquot of cells is added to each well of a 96-well plate. Compound to be tested is prepared in DMSO for plating at a high concentration of 2.5 mM, with 8 point 1:3 serial dilutions. A 1 μL aliquot of each compound dilution is added to a 96 well v-bottom polypropylene plate and 0.124 mL of OPGM is added to the compound. Then 50 μL at of the compound in OPGM is added to the osteoclast precursor cells in 96-well plate (providing highest test concentration of 5 μM). RANKL (2 μg) from the BulletKit is reconstituted in 1 mL of OPGM, then vortexed and centrifuged briefly. A 792 μL at aliquot of RANKL is added to 6 mL of OPGM and 50 μL at is added to low control wells. Then 76.6 μL M-CSF (10 μg/mL) from the BulletKit is added to the remaining 5.8 mL of OPGM/RANKL solution (4×RANKL/M-CSF/OPGM). A 50 μL at aliquot of this is added to the remaining wells, and the remainder is stored at 4° C. for later use. The plate is incubated at 37° C. for 6 days, then the remaining OPGM/RANKL/M-CSF solution is warmed to 37° C. The remaining approximately 198 μL is combined with 6 mL of OPGM. The media is aspirated from the osteoclast wells and 100 μL of RANKL/OPGM is added to the low controls. The remaining RANKL/OPGM is combined with the approximately 18.5 μL of remaining M-CSF. The remaining 4×RANKL/M-CSF/OPGM from day 0 is diluted to 1× and combined with the freshly prepared solution. A 0.1 mL aliquot of this is added to each osteoclast well and incubated for 37° C. for 1 day. The Acid Phosphatase kit (Cayman Chemical catalog #10008051) is warmed to room temperature. The assay buffer is diluted 5 mL with 45 mL of water. For each plate, two substrate tablets are dissolved in 4.5 mL of the assay buffer, mixing by vortex to break up the tablet. Stop solution is diluted 12 mL with 36 mL of water. In a tissue culture hood, 20 μL of each osteoclast well supernatant is transferred to a 96 well plate. A 30 μL aliquot of the substrate solution is added to each well and incubated at 37° C. for 20 minutes, then added 100 μL stop solution to each well. The absorbance of each well is read at 405 nm on Safire plate reader. The absorbance reading is plotted vs. concentration to provide the IC50 for each compound.
`FC1(F)CCC(Nc2ncc(Cc3c[nH]c4ncc(Cl)cc34)cn2)CC1` [Compound P-3004] gave a pIC50 of more than 7.00.
As for `Clc1cnc2[nH]cc(Cc3cnc(NC4CCCCCC4)nc3)c2c1` [Compound P-3006, [5-(5-Chloro-1H-pyrrolo[2,3-b]pyridin-3-ylmethyl)-pyrimidin-2-yl]-cycloheptyl-amine], the pIC50 was more than 7.00.
Next, `COc1ccc(Nc2ccc(Cc3c[nH]c4ncc(C)cc34)c(F)n2)cn1` [Compound P-3019, [6-fluoro-5-(5-methyl-1H-pyrrolo[2,3-b]pyridin-3-ylmethyl)-pyridin-2-yl]-(6-methoxy-pyridin-3-yl)-amine]: more than 7.00.
Molecule `CCOc1ccc(Nc2ncc(Cc3c[nH]c4ncc(C)cc34)cn2)cn1` [Compound P-3027, (6-Ethoxy-pyridin-3-yl)-[5-(5-methyl-1H-pyrrolo[2,3-b]pyridin-3-ylmethyl)-pyrimidin-2-yl]-amine] gave a pIC50 of more than 7.00.
`CCn1cc(Nc2ncc(Cc3c[nH]c4ncc(C)cc34)cn2)cn1` [Compound P-3036, (1-Ethyl-1H-pyrazol-4-yl)-[5-(5-methyl-1H-pyrrolo[2,3-b]pyridin-3-ylmethyl)-pyrimidin-2-yl]-amine] showed a pIC50 of more than 7.00.
Turning to `CCOc1ccc(Nc2ccc(Cc3c[nH]c4ncc(C)cc34)c(F)n2)cn1` [Compound P-3039, (6-ethoxy-pyridin-3-yl)-[6-fluoro-5-(5-methyl-1H-pyrrolo[2,3-b]pyridin-3-ylmethyl)-pyridin-2-yl]-amine], the pIC50 is more than 7.00.
Molecule `Cc1cnc2[nH]cc(Cc3ccc(Nc4ccc(C)nc4)nc3F)c2c1` [Compound P-3041, [6-Fluoro-5-(5-methyl-1H-pyrrolo[2,3-b]pyridin-3-ylmethyl)-pyridin-2-yl]-(6-methyl-pyridin-3-yl)-amine] showed a pIC50 of more than 7.00.
The molecule `Cc1ccc(Nc2ccc(Cc3c[nH]c4ncc(Cl)cc34)c(F)n2)cn1` [Compound P-3042, [5-(5-Chloro-1H-pyrrolo[2,3-b]pyridin-3-ylmethyl)-6-fluoro-pyridin-2-yl]-(6-methyl-pyridin-3-yl)-amine] gave a pIC50 of more than 7.00.
The molecule `COc1ccc(Nc2ccc(Cc3c[nH]c4ncnc(OC)c34)c(F)n2)cn1` [Compound P-4001, [6-Fluoro-5-(4-methoxy-7H-pyrrolo[2,3-d]pyrimidin-5-ylmethyl)-pyridin-2-yl]-(6-methoxy-pyridin-3-yl)-amine] had a pIC50 of more than 7.00.
Under `COc1ncnc2[nH]cc(Cc3ccc(Nc4ccc(C5CC5)nc4)nc3F)c12` [Compound P-4004, (6-Cyclopropyl-pyridin-3-yl)-[6-fluoro-5-(4-methoxy-7H-pyrrolo[2,3-d]pyrimidin-5-ylmethyl)-pyridin-2-yl]-amine] stands more than 7.00; under `CCOc1ccc(Nc2ccc(Cc3c[nH]c4ncnc(OC)c34)c(F)n2)cn1` [Compound P-4005, (6-Ethoxy-pyridin-3-yl)-[6-fluoro-5-(4-methoxy-7H-pyrrolo[2,3-d]pyrimidin-5-ylmethyl)-pyridin-2-yl]-amine], more than 7.00; under `CCOc1ccc(Nc2ccc(Cc3c[nH]c4ncnc(C)c34)c(F)n2)cn1` [Compound P-4006, (6-Ethoxy-pyridin-3-yl)-[6-fluoro-5-(4-methyl-7H-pyrrolo[2,3-d]pyrimidin-5-ylmethyl)-pyridin-2-yl]-amine], more than 7.00.
On to `CCc1ccc(Nc2ccc(Cc3c[nH]c4ncnc(OC)c34)c(F)n2)cn1` [Compound P-4007, (6-Ethyl-pyridin-3-yl)-[6-fluoro-5-(4-methoxy-7H-pyrrolo[2,3-d]pyrimidin-5-ylmethyl)-pyridin-2-yl]-amine], for which the pIC50 was more than 7.00.
`CCOc1ccc(Nc2ccc(Cc3c[nH]c4ncnc(OCCOC)c34)c(F)n2)cn1` [Compound P-4008, (6-Ethoxy-pyridin-3-yl)-{6-fluoro-5-[4-(2-methoxy-ethoxy)-7H-pyrrolo[2,3-d]pyrimidin-5-ylmethyl]-pyridin-2-yl}-amine] had a pIC50 of more than 7.00.
Molecule `CCc1ccc(Nc2ccc(Cc3c[nH]c4ncnc(C)c34)c(F)n2)cn1` [Compound P-4009, (6-Ethyl-pyridin-3-yl)-[6-fluoro-5-(4-methyl-7H-pyrrolo[2,3-d]pyrimidin-5-ylmethyl)-pyridin-2-yl]-amine] had a pIC50 of more than 7.00.
Regarding `COc1ncnc2[nH]cc(Cc3ccc(Nc4ccc(C)nc4)nc3F)c12` [Compound P-4010, [6-Fluoro-5-(4-methoxy-7H-pyrrolo[2,3-d]pyrimidin-5-ylmethyl)-pyridin-2-yl]-(6-methyl-pyridin-3-yl)-amine], the pIC50 is more than 7.00.
For the molecule `CCn1cc(Nc2ccc(Cc3c[nH]c4ncnc(OC)c34)c(F)n2)cn1` [Compound P-4011, (1-Ethyl-1H-pyrazol-4-yl)-[6-fluoro-5-(4-methoxy-7H-pyrrolo[2,3-d]pyrimidin-5-ylmethyl)-pyridin-2-yl]-amine], the pIC50 was more than 7.00.
`CCOc1ncnc2[nH]cc(Cc3ccc(Nc4cnn(CC)c4)nc3F)c12` [Compound P-4012, [5-(4-Ethoxy-7H-pyrrolo[2,3-d]pyrimidin-5-ylmethyl)-6-fluoro-pyridin-2-yl]-(1-ethyl-1H-pyrazol-4-yl)-amine] gave a pIC50 of more than 7.00.
For `CCn1cc(Nc2ccc(Cc3c[nH]c4ncnc(C)c34)c(F)n2)cn1` [Compound P-4013, (1-Ethyl-1H-pyrazol-4-yl)-[6-fluoro-5-(4-methyl-7H-pyrrolo[2,3-d]pyrimidin-5-ylmethyl)-pyridin-2-yl]-amine], the pIC50 is more than 7.00.
The molecule `CCn1cc(Nc2ccc(Cc3c[nH]c4ncnc(OCCOC)c34)c(F)n2)cn1` [Compound P-4014, (1-Ethyl-1H-pyrazol-4-yl)-{6-fluoro-5-[4-(2-methoxy-ethoxy)-7H-pyrrolo[2,3-d]pyrimidin-5-ylmethyl]-pyridin-2-yl}-amine] had a pIC50 of more than 7.00.
In turn, `COCCOc1ncnc2[nH]cc(Cc3ccc(Nc4ccc(C)nc4)nc3F)c12` [Compound P-4015, {6-Fluoro-5-[4-(2-methoxy-ethoxy)-7H-pyrrolo[2,3-d]pyrimidin-5-ylmethyl]-pyridin-2-yl}-(6-methyl-pyridin-3-yl)-amine] showed a pIC50 of more than 7.00.
`CCc1ccc(Nc2ccc(Cc3c[nH]c4ncnc(OCCOC)c34)c(F)n2)cn1` [Compound P-4016, (6-Ethyl-pyridin-3-yl)-{6-fluoro-5-[4-(2-methoxy-ethoxy)-7H-pyrrolo[2,3-d]pyrimidin-5-ylmethyl]-pyridin-2-yl}-amine] gave a pIC50 of more than 7.00.
Take `COc1ccc(Nc2ccc(Cc3c[nH]c4ncnc(C5CC5)c34)c(F)n2)cn1` [Compound P-4023, [5-(4-cyclopropyl-7H-pyrrolo[2,3-d]pyrimidin-5-ylmethyl)-6-fluoro-pyridin-2-yl]-(6-methoxy-pyridin-3-yl)-amine]: the pIC50 is more than 7.00.
